Test results taken from the NIST ThermoML archive (doi:10.1021/je200668a).
Where “and” joins values, the source holds several entries; their conditions need not be identical. Identical values can stand only once. ± gives the expanded uncertainty stated by the source.

Conditions: Liquid, Pulse Transmission

O [water]
Conditions | speed of sound
288.13 K, 250900 kPa | 1878.5 ± 2.7 m/s
288.13 K, 300400 kPa | 1955.1 ± 2.9 m/s
288.13 K, 701000 kPa | 2453.9 ± 4 m/s
288.14 K, 150300 kPa | 1718.5 ± 2.4 m/s
288.15 K, 50900 kPa | 1550.1 ± 2 m/s
288.15 K, 349200 kPa | 2025.9 ± 3 m/s
288.15 K, 499800 kPa | 2225.2 ± 3.4 m/s
288.16 K, 99800 kPa | 1631.8 ± 2.2 m/s
288.16 K, 200200 kPa | 1800.9 ± 2.6 m/s
288.17 K, 99700 kPa | 1633.2 ± 2.2 m/s
288.17 K, 401300 kPa | 2098 ± 3.3 m/s
288.17 K, 561300 kPa | 2300.1 ± 3.6 m/s
288.17 K, 640700 kPa | 2391.2 ± 3.8 m/s
297.74 K, 702200 kPa | 2448.7 ± 3.9 m/s
297.78 K, 653200 kPa | 2402.2 ± 3.8 m/s
297.79 K, 250300 kPa | 1895.5 ± 2.9 m/s
297.79 K, 549700 kPa | 2286.1 ± 3.7 m/s
297.8 K, 499500 kPa | 2225.4 ± 3.4 m/s
297.82 K, 601700 kPa | 2346.1 ± 3.8 m/s
297.83 K, 300300 kPa | 1967.2 ± 3 m/s
297.84 K, 200200 kPa | 1819.5 ± 2.7 m/s
297.88 K, 50600 kPa | 1580.3 ± 2.2 m/s
297.88 K, 151000 kPa | 1743.2 ± 2.6 m/s
297.89 K, 400300 kPa | 2101.3 ± 3.2 m/s
297.9 K, 100 kPa | 1493.8 ± 1.9 m/s
297.9 K, 450500 kPa | 2165.2 ± 3.4 m/s
297.99 K, 99500 kPa | 1660.6 ± 2.6 m/s
298.05 K, 349200 kPa | 2035.4 ± 3 m/s
298.07 K, 699900 kPa | 2450.3 ± 3.9 m/s
298.09 K, 659800 kPa | 2412.6 ± 3.8 m/s
298.1 K, 599200 kPa | 2344.5 ± 3.7 m/s
298.11 K, 551300 kPa | 2287 ± 3.6 m/s
298.12 K, 350600 kPa | 2038.7 ± 3.1 m/s
298.15 K, 400500 kPa | 2103.8 ± 3.2 m/s
298.15 K, 500000 kPa | 2229.8 ± 3.4 m/s
298.16 K, 200800 kPa | 1821.6 ± 2.5 m/s
298.16 K, 300500 kPa | 1968.4 ± 3 m/s
298.18 K, 450300 kPa | 2167.6 ± 3.3 m/s
298.2 K, 50100 kPa | 1580.4 ± 2 m/s
298.24 K, 400400 kPa | 2102.3 ± 3.2 m/s
298.27 K, 150700 kPa | 1743.9 ± 2.5 m/s
298.28 K, 350900 kPa | 2038.4 ± 3 m/s
298.29 K, 249200 kPa | 1894.6 ± 2.8 m/s
298.3 K, 150800 kPa | 1745 ± 2.5 m/s
298.3 K, 299000 kPa | 1965.7 ± 3 m/s
298.31 K, 100400 kPa | 1662.8 ± 2.3 m/s
298.31 K, 250700 kPa | 1897.4 ± 2.8 m/s
298.34 K, 50200 kPa | 1580.9 ± 2 m/s
298.34 K, 199800 kPa | 1820.7 ± 2.6 m/s
298.35 K, 100 kPa | 1492.8 ± 1.9 m/s
298.36 K, 100400 kPa | 1664.2 ± 2.3 m/s
298.37 K, 100 kPa | 1492.2 ± 2 m/s
298.38 K, 699000 kPa | 2448 ± 3.9 m/s
298.41 K, 651700 kPa | 2400.7 ± 3.8 m/s
298.42 K, 449900 kPa | 2165.5 ± 3.3 m/s
298.43 K, 499700 kPa | 2225.8 ± 3.4 m/s
298.43 K, 549200 kPa | 2287.7 ± 3.6 m/s
298.45 K, 601800 kPa | 2347.7 ± 3.7 m/s
308.06 K, 400400 kPa | 2112.6 ± 3.2 m/s
308.07 K, 449300 kPa | 2173.3 ± 3.3 m/s
308.08 K, 300500 kPa | 1983.1 ± 2.9 m/s
308.09 K, 349400 kPa | 2048.7 ± 3.1 m/s
308.09 K, 400000 kPa | 2112.1 ± 3.2 m/s
308.09 K, 499500 kPa | 2230.5 ± 3.4 m/s
308.09 K, 559700 kPa | 2301.4 ± 3.6 m/s
308.09 K, 650800 kPa | 2402.2 ± 3.8 m/s
308.09 K, 703600 kPa | 2441.6 ± 4 m/s
308.1 K, 250500 kPa | 1913.4 ± 2.8 m/s
308.1 K, 299900 kPa | 1983.2 ± 2.9 m/s
308.1 K, 350900 kPa | 2048.9 ± 3.1 m/s
308.1 K, 601700 kPa | 2349.8 ± 3.8 m/s
308.1 K, 698500 kPa | 2446.7 ± 3.9 m/s
308.11 K, 100 kPa | 1515.3 ± 2 m/s
308.11 K, 160100 kPa | 1781.2 ± 2.5 m/s
308.11 K, 650700 kPa | 2402.3 ± 3.8 m/s
308.12 K, 149900 kPa | 1766.1 ± 2.5 m/s
308.12 K, 200400 kPa | 1840.6 ± 2.7 m/s
308.12 K, 200700 kPa | 1840.1 ± 2.7 m/s
308.12 K, 299900 kPa | 1984.1 ± 2.9 m/s
308.12 K, 400700 kPa | 2110.8 ± 3.2 m/s
308.13 K, 51000 kPa | 1606 ± 2 m/s
308.13 K, 349800 kPa | 2049.7 ± 3.1 m/s
308.13 K, 599600 kPa | 2344.5 ± 3.8 m/s
308.14 K, 99700 kPa | 1690.4 ± 2.3 m/s
308.14 K, 150300 kPa | 1766.1 ± 2.5 m/s
308.14 K, 449900 kPa | 2171.7 ± 3.3 m/s
308.14 K, 701600 kPa | 2447.4 ± 3.9 m/s
308.15 K, 100 kPa | 1514.3 ± 2 m/s and 1514.1 ± 2 m/s
308.15 K, 250800 kPa | 1913.1 ± 2.8 m/s
308.15 K, 450900 kPa | 2174.9 ± 3.3 m/s
308.15 K, 499400 kPa | 2232.5 ± 3.4 m/s
308.16 K, 111000 kPa | 1706.1 ± 2.3 m/s
308.16 K, 639800 kPa | 2388.9 ± 3.8 m/s
308.17 K, 50300 kPa | 1604.9 ± 2 m/s
308.17 K, 99800 kPa | 1690 ± 2.3 m/s
308.17 K, 200300 kPa | 1839.8 ± 2.7 m/s
308.17 K, 549700 kPa | 2292.4 ± 3.6 m/s
308.19 K, 250500 kPa | 1913.9 ± 2.8 m/s
308.19 K, 549600 kPa | 2291 ± 3.6 m/s
308.21 K, 499700 kPa | 2232.3 ± 3.4 m/s
308.22 K, 50600 kPa | 1605.5 ± 2 m/s
308.22 K, 599600 kPa | 2346.6 ± 3.7 m/s
318.02 K, 200600 kPa | 1860.6 ± 2.7 m/s
318.02 K, 350800 kPa | 2062 ± 3.1 m/s
318.06 K, 399700 kPa | 2122.5 ± 3.2 m/s
318.07 K, 99500 kPa | 1705.7 ± 2.3 m/s
318.09 K, 349600 kPa | 2062.1 ± 3.1 m/s
318.1 K, 200400 kPa | 1860.8 ± 2.7 m/s
318.1 K, 299400 kPa | 1995.8 ± 2.9 m/s
318.1 K, 300100 kPa | 1998.9 ± 2.9 m/s
